Test results: publication PMC6445163, “Design, synthesis, and evaluation of novel 2-phenylpropionic acid derivatives as dual COX inhibitory-antibacterial agents” (Journal of Enzyme Inhibition and Medicinal Chemistry, 2017)
≈ marks a conversion by molar mass, not a printed value. Like-named read-outs stand apart in the source and are kept apart here. Marks after values point to notes of the source that are not given here.

What was measured:
[1] = tested on: Enterococcus faecalis (ATCC 29212); test: broth microdilution MIC (CLSI M07-A9), resazurin; type: cell-based; details: ATCC29212, 24 h
Description: (§1) Microbiological studies were performed according to following guides: CLSI reference […]-A9 broth microdilution method[49] for bacterial strains and EUCAST definitive (EDef 7.1) method[50] for Candida species. Synthesized compounds were tested for their in vitro growth inhibitory activity against Staphylococcus aureus (ATCC 25923), Enterococcus faecalis (ATCC 29212), Listeria monocytogenes (ATCC 1911), Klebsiella pneumoniae (NCTC 9633), Escherichia coli (ATCC 35218), E. coli (ATCC 25922) Candida albicans (ATCC 24433) Candida krusei (ATCC 6258) and Candida parapsilosis (ATCC 22019). Chloramphenicol and ketoconazole were used as control drugs. The cultures were obtained from the Mueller-Hinton broth (Difco) for the bacterial strains after overnight incubation at 37 °C. The yeasts were maintained in Roswell Park Memorial Institute (RPMI) after overnight incubation at 37 °C. […] Testing was carried out in Mueller-Hinton broth and RPMI at pH =7, and the two-fold serial dilutions technique was applied. The last well on the microplates containing only inoculated broth was kept as controls and the last well with no growth of microorganism was recorded to represent the minimum inhibitory concentration (MIC) expressed in μg/mL. For both the antibacterial and antifungal assays, the compounds were dissolved in DMSO. […] The completed plates were incubated for 24 h. At the end of the incubation, resazurin (20 μg/mL) was added into each well and plates were incubated for 2 h. MIC values were determined using a microplate reader at […]. Synthesized compounds (6a-6m) were evaluated for antimicrobial activity against various microorganisms such as Staphylococcus aureus (ATCC 25923), Enterococcus faecalis (ATCC 29212), Listeria monocytogenes (ATCC 1911), Klebsiella pneumoniae (NCTC 9633), Escherichia coli (ATCC 35218), E. coli (ATCC 25922)Candida albicans (ATCC 24433) Candida krusei (ATCC 6258) and Candida parapsilosis (ATCC 22019). […] Chloramphenicol and ketoconazole were used as standard drugs in the activity test. […] Besides, the compounds 6d, 6h, 6l and 6m indicated stronger antibacterial activity than the other compounds in the series.

[2] = tested on: Listeria monocytogenes (ATCC 1911); test: broth microdilution MIC (CLSI M07-A9), resazurin; type: cell-based; details: ATCC1911, 24 h
Description: as §1

[3] = tested on: Escherichia coli (ATCC 25922); test: broth microdilution MIC (CLSI M07-A9), resazurin; type: cell-based; details: ATCC25922, 24 h, read-out: MIC Ec-2
Description: as §1

[4] = tested on: Klebsiella pneumoniae (NCTC 9633); test: broth microdilution MIC (CLSI M07-A9), resazurin; type: cell-based; details: 24 h
Description: as §1

[5] = tested on: Staphylococcus aureus (ATCC 25923); test: broth microdilution MIC (CLSI M07-A9), resazurin; type: cell-based; details: ATCC25923, 24 h
Description: as §1

[6] = tested on: Escherichia coli (ATCC 35218); test: broth microdilution MIC (CLSI M07-A9), resazurin; type: cell-based; details: ATCC35218, 24 h, read-out: MIC Ec-1
Description: as §1

[7] = tested on: Salmonella typhimurium TA100 (base-pair substitutions); test: Ames MPF mutagenicity assay, TA100; type: cell-based; details: for mutagenicity classification against TA100: presence or absence of metabolic activation (S9)
Description: (§2) Salmonella typhimurium strains, TA98 (frameshift mutations) and TA100 (base-pair substitutions), are used in this assay. Concentration range of the compounds was between […] and 5000 µg/mL according to the previous guidelines. Compounds were prepared in six different concentrations (5, 2.5, 1.25, 0.625, 0.3125 and 0.156 mg/mL) in DMSO. Mutagenic potential was determined in absence and presence of Aroclor™-1254 induced male Sprague–Dawley rat liver microsomal enzyme (S9) mix (Xenometrix AG, Switzerland). Positive controls without S9 mix were 2-Nitrofluorene (2 µg/mL) and 4-nitroquinoline N-oxide (0.1 µg/mL) whereas 1 and 2.5 µg/mL of 2-aminoanthracene solutions were used as positive controls with S9 against TA 98 and TA100, respectively. Solvent control was prepared with 4% DMSO. At the end of the experiment, revertant bacteria dropped the pH of solution and indicator medium color was changed to yellow. Yellow wells were counted as positive and compared with the negative control. Fold induction over the negative control and fold induction over the baseline were calculated. Fold induction over the negative control is the ratio of the mean number of positive wells for the dose concentration divided by the mean number of positive wells for the zero dose (negative) control. Fold induction over the baseline is the ratio of the mean number of positive wells for the dose concentration divided by zero dose baseline. The zero dose baseline is obtained by adding one standard deviation to the mean number of positive wells of the zero dose control. Mutagenicity was determined according to the criteria from previous studies[52]^,[56]. For a value ≤3 and significant increases between two and three-fold the baselines were classified as a weak mutagen, and increases ≥ three-fold the baselines were classified as a mutagen. […] As a rule, at least two adjacent doses with significant increases or a significant increase at the highest dose level should be observed for a mutagenic compound. All doses were compared according to Student’s t-test at p < .05 for statistical significance.
(§3) Ames assay was performed to investigate the genotoxicity of compounds 6h and 6l.

[8] = tested on: Salmonella typhimurium TA98 (frameshift mutations); type: cell-based; details: for mutagenicity classification against TA98: presence/absence of metabolic activation (S9)
Description: as §2, §3

[9] = tested on: Candida krusei (ATCC 6258); test: broth dilution MIC (EUCAST EDef 7.1), resazurin; type: cell-based; details: Pichia kudriavzevii, ATCC6258, 24 h
Description: as §1

[10] = tested on: Candida parapsilosis (ATCC 22019); test: broth dilution MIC (EUCAST EDef 7.1), resazurin; type: cell-based; details: ATCC22019, 24 h
Description: as §1

[11] = tested on: Candida albicans (ATCC 24433); test: broth dilution MIC (EUCAST EDef 7.1), resazurin; type: cell-based; details: ATCC24433, 24 h
Description: as §1

[12] = tested on: TA100 (base-pair substitutions); test: Ames MPF mutagenicity assay, TA100; type: cell-based, Salmonella typhimurium; details: Salmonella typhimurium; each concentration, with and without S9; read-out: Fold inductions over baseline, TA 100
Description: as §2, §3

SMILES	MIC [1]	MIC [2]	MIC [3]	MIC Kp [4]	MIC [5]	MIC [6]	Revertants fold increase (over baseline) TA 100 S9+ ([7]; 0.156 mg/mL)	Revertants fold increase (over baseline) TA 100 S9+ ([7]; 0.3125 mg/mL)	Revertants fold increase (over baseline) TA 100 S9− ([7]; 0.3125 mg/mL)	Revertants fold increase (over baseline) TA 100 S9+ ([7]; 0.625 mg/mL)	Revertants fold increase (over baseline) TA 100 S9− ([7]; 0.625 mg/mL)	Revertants fold increase (over baseline) TA 100 S9+ ([7]; 1.25 mg/mL)	Revertants fold increase (over baseline) TA 100 S9− ([7]; 1.25 mg/mL)	Revertants fold increase (over baseline) TA 100 S9+ ([7]; 2.5 mg/mL)	Revertants fold increase (over baseline) TA 100 S9− ([7]; 2.5 mg/mL)	Revertants fold increase (over baseline) TA 100 S9+ ([7]; 5 mg/mL)	Revertants fold increase (over baseline) TA 100 S9− ([7]; 5 mg/mL)	mutagenicity classification against TA100 [7]	Revertants fold increase (over baseline) TA 98 S9− ([8]; 0.156 mg/mL)	Revertants fold increase (over baseline) TA 98 S9+ ([8]; 0.3125 mg/mL)	other results
COc1ccc2sc(SCc3ccc(C(C)C(=O)O)cc3)nc2c1 (stereo not drawn) [Compound 6h, 2-(4-(((5-Methoxybenzo[d]thiazol-2-yl)thio)methyl)phenyl)propanoic acid]	12.5 µg/mL (≈ 34.8 µM)	6.25 µg/mL (≈ 17.4 µM)	12.5 µg/mL (≈ 34.8 µM)	6.25 µg/mL (≈ 17.4 µM)	12.5 µg/mL (≈ 34.8 µM)	6.25 µg/mL (≈ 17.4 µM)	0.60	0.50	0.52	0.20	0.70	0.25	0.17	0.25	1.05	0.20	0.87	did not show any mutagenicity	0.56	0.52	Revertants fold increase (over baseline) TA 98 S9− ([8]; 0.3125 mg/mL): 0.56; Revertants fold increase (over baseline) TA 98 S9+ ([8]; 0.625 mg/mL): 0.70; Revertants fold increase (over baseline) TA 98 S9− ([8]; 0.625 mg/mL): 0.60; Revertants fold increase (over baseline) TA 98 S9+ ([8]; 1.25 mg/mL): 0.17; Revertants fold increase (over baseline) TA 98 S9− ([8]; 1.25 mg/mL): 0.73; Revertants fold increase (over baseline) TA 98 S9+ ([8]; 2.5 mg/mL): 1.05; Revertants fold increase (over baseline) TA 98 S9− ([8]; 2.5 mg/mL): 0.22^a; Revertants fold increase (over baseline) TA 98 S9+ ([8]; 5 mg/mL): 0.87; Revertants fold increase (over baseline) TA 98 S9− ([8]; 5 mg/mL): 0.17^a; mutagenicity classification against TA98 [8]: non-mutagenic; MIC [9]: 100 µg/mL (≈ 278 µM); MIC [10]: 50 µg/mL (≈ 139 µM); MIC [11]: 50 µg/mL (≈ 139 µM)
COc1ccc2[nH]c(SCc3ccc(C(C)C(=O)O)cc3)nc2c1 (stereo not drawn) [Compound 6l, 2-(4-(((5-Methoxy-1H-benzo[d]imidazol-2-yl)thio)methyl)phenyl)propanoic acid]	12.5 µg/mL (≈ 36.5 µM)	6.25 µg/mL (≈ 18.3 µM)	12.5 µg/mL (≈ 36.5 µM)	6.25 µg/mL (≈ 18.3 µM)	12.5 µg/mL (≈ 36.5 µM)	6.25 µg/mL (≈ 18.3 µM)	0.74	0.52	0.27^a	0.52	0.13^a	0.00^a	0.13^a	0.00^a	0.20^a	0.00^a	0.00^a	non-mutagenic	0.57	0.50	Revertants fold increase (over baseline) TA 100 S9− ([7]; 0.156 mg/mL): 0.53a; fold induction [12]: < 1.5; Revertants fold increase (over baseline) TA 98 S9+ ([8]; 0.156 mg/mL): 0.17^a; Revertants fold increase (over baseline) TA 98 S9− ([8]; 0.3125 mg/mL): 0.31^a; Revertants fold increase (over baseline) TA 98 S9+ ([8]; 0.625 mg/mL): 0.75; Revertants fold increase (over baseline) TA 98 S9− ([8]; 0.625 mg/mL): 0.61; Revertants fold increase (over baseline) TA 98 S9+ ([8]; 1.25 mg/mL): 0.08^a; Revertants fold increase (over baseline) TA 98 S9− ([8]; 1.25 mg/mL): 0.04a; Revertants fold increase (over baseline) TA 98 S9+ ([8]; 2.5 mg/mL): 0.00^a; Revertants fold increase (over baseline) TA 98 S9− ([8]; 2.5 mg/mL): 0.00^a; Revertants fold increase (over baseline) TA 98 S9+ ([8]; 5 mg/mL): 0.00^a; Revertants fold increase (over baseline) TA 98 S9− ([8]; 5 mg/mL): 0.04^a; mutagenicity classification against TA98 [8]: non-mutagenic; MIC [9]: 50 µg/mL (≈ 146 µM); MIC [10]: 50 µg/mL (≈ 146 µM); MIC [11]: 50 µg/mL (≈ 146 µM)
